Measurements taken from US4551477A, “Esters of alkoxy-acylderivatives of carnitine and pharmaceutical compositions containing same” (Sigma-Tau Industrie Farmaceutiche Riunite S.P.A., priority 1974, dated 1985).

Tests used:
[1] = Acute toxicity (LD50) in mice; settings: mouse, in vivo, ip
Excerpt: (a) Acute toxicity (LD50)
Acute toxicity was investigated by using the method disclosed by Weil C. S. in "Tables for convenient calculation of median-effective dose (LD50 or ED50) and instructions in their use", Biometrics, 249-253, 1952.
The tolerance of the compounds under examination was investigated in mice after administration by the intraperitoneal or oral route. […] (see the Table).

rabbit isolated heart = assay: Inotropic effect on rabbit isolated heart (Langendorff) after anoxia; settings: Oryctolagus cuniculus, 10 min, dose 10^-5 gl^-1, 10 minutes after interruption of the anoxic period, increase against controls
Experimental: Rabbit hearts isolated by the Langendorff method were perfused with oxygenized Ringer solution at 38.2° C. The isometric contractions, electrogardiogram and coronary flow were recorded using a "Battaglia-Rangoni" polygraph. By removing the oxygen from the perfusion fluid, metabolic damage was induced in the cardiac muscle, up to an 80% reduction in the cardiac contractile force.
Under these conditions of prolonged anoxia the aerobic glycolysis of the myocardium is slowed down, accompanied by the storage of acid catabolites due to both the accumulation of pyruvic acid and its conversion to lactic acid which cannot be utilized because of the depression of pyridine enzymes, such as LDH (lactodehydrogenase). This has repercussions on the anaerobic glycolysis affecting an ever increasing number of enzymes, accompanied by a progressive and increasingly critical exhaustion of the myocardium. Thus a whole series of cardiac muscle fatigue levels occurs which can be observed by the behavior of the examined parameters, namely the contractile force, coronary flow, heart rate and cardiac rhythm. As soon as the contractile force was reduced by 80%, the perfusion fluid was once again oxygenized either without adding other compounds (controls) or with the addition of the compounds under examination.
In the Table there are shown the percentage value of increase against the controls.

mice [2] = assay: Antiarrhythmic (antifibrillatory) effect, aconitine-induced arrhythmia in mice; type: in vivo; settings: Mus musculus, iv, read-out: Antifibrillatory activity, % reduction
Experimental: (c) Antiarrhythmic effect
In order to evaluate the antiarrhythmic activity of the carnitine derivatives of this invention studied with in vivo tests in addition to and in comparison with the currently employed in vitro tests, the method disclosed by Nwangwu et al. (Arch. Int. Pharmacodyn., 1977, 229, 219) was used.
According to this method an aconitine solution is injected into the caudal vein of mice and the onset time of arrhythmia and tachycardia after 2 to 60 minutes from administration of the compounds under examination is recorded.
The antiarrhythmic activity calculated from the increase in the latency time of the onset of the arrhythmias of the treated animals in comparison with the controls, is illustrated in the Table.

mice [3] = assay: Adrenaline-antagonizing effect in mice; type: in vivo, male Albino Swiss mice; settings: Mus musculus, ip, 30 min before adrenaline, mortality checked for 36 hours, read-out: Antiadrenaline activity, % mortality reduction; for responders at 300 mg/kg: dose 300 mg kg^-1 i.p.; for responders at 100 mg/kg: dose 100 mg kg^-1 i.p.; for responders at 50 mg/kg: dose 50 mg kg^-1 i.p.; for responders at 70 mg/kg: dose 70 mg kg^-1 i.p.
Experimental: (d) Adrenaline-antagonizing effect
Groups of ten male Albino Swiss mice, weighing 12-22 g, were intraperitoneally administered either with the esters of the present invention or with saline (control) and, after 30 minutes, with adrenaline (treated) at a dose capable of bringing about death to 100% of the control animals due to ventricular fibrillation and cardiac lesions ensuing from increase in frequency, pressure and oxygen uptake from the myocardium.
Mortality was checked for 36 hours and the effect of the compounds expressed as percentage of surviving animals, is shown in the Table.

SMILES	LD50 [1]	activation at 0.01 µg/mL (rabbit isolated heart)	inhibition in vivo at 50 mg/kg (mice [2])	responders at 100 mg/kg (mice [3])	further results
CCOC(C)C(=O)OC(CC(=O)OC(C)C)C[N+](C)(C)C (centres unmarked) [R = 2-ethoxypropionyl; R' = isopropyl]	1200 mg/kg	50%	70%	–	responders at 300 mg/kg (mice [3]): 50%
COC(C)C(=O)OC(CC(=O)OC(C)C)C[N+](C)(C)C (centres unmarked) [R = 2-methoxypropionyl; R' = isopropyl, 2-methoxy propionyl carnitine isopropyl ester]	850 mg/kg	70%	68%	58%	–
CCCCOC(=O)CC(C[N+](C)(C)C)OC(=O)COCC (centres unmarked) [R = ethoxyacetyl; R' = butyl]	600 mg/kg	58%	–	75%	inhibition in vivo at 40 mg/kg (mice [2]): 75%
CCOCC(=O)OC(CC(=O)OCC)C[N+](C)(C)C (centres unmarked) [R = ethoxyacetyl; R' = ethyl]	600 mg/kg	68%	–	–	inhibition in vivo at 35 mg/kg (mice [2]): 65%; responders at 50 mg/kg (mice [3]): 50%
CCOCC(=O)OC(CC(=O)OCC(C)C)C[N+](C)(C)C (centres unmarked) [R = ethoxyacetyl; R' = isobutyl, ethoxyacetyl carnitine isobutyl ester]	750 mg/kg	70%	–	–	inhibition in vivo at 10 mg/kg (mice [2]): 70%; responders at 70 mg/kg (mice [3]): 50%
CCOCC(=O)OC(CC(=O)OC(C)C)C[N+](C)(C)C (centres unmarked) [R = ethoxyacetyl; R' = isopropyl]	700 mg/kg	72%	70%	60%	–
CCOCC(=O)OC(CC(=O)OC)C[N+](C)(C)C (centres unmarked) [R = ethoxyacetyl; R' = methyl]	1100 mg/kg	55%	–	–	inhibition in vivo at 150 mg/kg (mice [2]): 90%; responders at 300 mg/kg (mice [3]): 75%
CCCOC(=O)CC(C[N+](C)(C)C)OC(=O)COCC (centres unmarked) [R = ethoxyacetyl; R' = propyl]	620 mg/kg	49%	75%	75%	–
CCCCOC(=O)CC(C[N+](C)(C)C)OC(=O)COC (centres unmarked) [R = methoxyacetyl; R' = butyl]	550 mg/kg	55%	–	70%	inhibition in vivo at 40 mg/kg (mice [2]): 75%
CCOC(=O)CC(C[N+](C)(C)C)OC(=O)COC (centres unmarked) [R = methoxyacetyl; R' = ethyl]	550 mg/kg	58%	70%	–	responders at 70 mg/kg (mice [3]): 70%
COCC(=O)OC(CC(=O)OCC(C)C)C[N+](C)(C)C (centres unmarked) [R = methoxyacetyl; R' = isobutyl, methoxyacetyl carnitine isobutyl ester]	690 mg/kg	79%	–	–	inhibition in vivo at 75 mg/kg (mice [2]): 85%; responders at 300 mg/kg (mice [3]): 60%
COCC(=O)OC(CC(=O)OC(C)C)C[N+](C)(C)C (centres unmarked) [R = methoxyacetyl; R' = isopropyl]	800 mg/kg	55%	80%	–	responders at 50 mg/kg (mice [3]): 75%
COCC(=O)OC(CC(=O)OC)C[N+](C)(C)C (centres unmarked) [R = methoxyacetyl; R' = methyl]	1200 mg/kg	72%	–	–	inhibition in vivo at 300 mg/kg (mice [2]): 75%; responders at 450 mg/kg (mice [3]; dose 450 mg kg^-1 i.p.): 70%
CCCOC(=O)CC(C[N+](C)(C)C)OC(=O)COC (centres unmarked) [R = methoxyacetyl; R' = propyl]	650 mg/kg	78%	100%	–	responders at 50 mg/kg (mice [3]): 75%
